Assay results reported in patent US4078079A, “Thiocyano-xanthate miticides” (Stauffer Chemical Company, priority 1976, dated 1978).
In brackets after ≈: the same amount, converted by molar mass.

Tests used:
[1] = system: Phoma herbarum; experiment: Biocide Testing Procedure (malt extract broth); type: cell-based; conditions: 168 h, one week, read-out: lowest concentration which provides 50% inhibition of growth
Protocol: Biocide Testing Procedure Tubes of sterilized nutrient and malt extract broth are prepared. Aliquots of the toxicant, dissolved in an appropriate solvent, are injected through the stopper, into the broth, to provide concentrations ranging from 50 ppm downward. The test organism is a fungus, Phoma herbarum. Three drops of a spore suspension of the fungus are injected into the tubes of malt broth. One week later the growth of the organism is observed and effectiveness of the chemical is recorded as the lowest concentration in ppm which provides 50% inhibition of growth as compared to untreated inoculated tube.

[2] = system: Desulfovibrio desulfuricans; experiment: Sulfate Reducing Bacteria In Vitro Test; type: cell-based; conditions: Sulfate API broth with tryptone, anaerobic, room temperature, 3 to 5 days, read-out: minimum inhibitory concentration necessary to control the organism
Protocol: This test measures the bactericidal properties of a compound when in contact with a sulfate reducing bacteria, specifically Desulfovibrio desulfuricans. The test is conducted by dissolving the test compound in acetone to give an 0.5% solution. This toxicant is added to vials containing sterile Sulfate API broth with tryptone under anaerobic conditions at such levels to give final toxicant concentrations of 1, 5, 10 and 50 ug/ml. of solution. An inoculant solution of 0.5 ml. of the growing organism, Desulfovibrio desulfuricans, is added to the vials followed by sufficient sterile distilled water to give a total of 10 ml. of solution in the vials. The vials are incubated at room temperature for 3 to 5 days until untreated controls show growth of the organism as indicated by the black color development in the vials. The following is a summary of the minimum inhibitory concentration necessary to control the organism.

[3] = system: Staphylococcus aureus; experiment: Staphylococcus Aureus Use Dilution Test; type: cell-based; conditions: Tryptic Soy Broth, 24 hours, 37° C, read-out: Minimum Inhibitory Concentration
Protocol: This test measures the bacteriostatic effectiveness of a particular test compound against Staphylococcus aureus. Tryptic Soy Broth is dispensed aseptically into sterile 13 × 100 mm. clear glass culture tubes. The first tube receives 3.6 ml. of medium and tubes 2 through 10 receive 2.0 ml. of medium. The test compound is dissolved in acetone to give 10 ml. of a solution of 0.10% of the test compound. Using a sterile syringe, 0.4 ml. of the test compound solution is placed in the first tube containing the 3.6 ml. of sterile broth and mixed thoroughly. This operation is continued through to the tenth tube. From the tenth tube, 2.0 ml. of solution is removed and discarded. Each tube is then innoculated with 0.1 ml. of a 24 hour culture of Staphylococcus aureus in Tryptic Soy Broth, and the mixture is mixed thoroughly using a Vortex mixer. A control is also set up to be sure that the inoculum is viable using a tube of sterile broth containing no added toxicant. The tubes are incubated for 24 hours at 37° C. The tubes are then examined to determine growth of the organism in the culture tubes. The minimum concentration in which no growth of the organism occurs is recorded. The following table gives the minimum inhibitory concentration necessary to control the organism: […]

[4] = system: Two-spotted Mite (2-SM) Tetranychus urticae (Koch); experiment: Plant Dip Assay on Two-Spotted Mite, 2-SM PE; type: in vivo; conditions: infested Pinto Bean plants dipped 2-3 seconds, mortality after seven days, adult mites
Text: The Two-spotted Mite (2-SM) Tetranychus urticae (Koch) is subjected to evaluation tests for miticidal activity. Plant Dip Assay on Two-Spotted Mite [Tetranychus urticae (Koch)] Pinto Bean plants (Phaseolus sp.) approximately 10 cm tall, are transplanted into sandy loam soil in 3 inch clay pots and thoroughly infested with two-spotted mites of mixed ages and sexes. Twenty-four hours later the infested plants are inverted and dipped for 2-3 seconds in 50-50 acetone-water solutions of the test chemicals. Treated plants are held in the greenhouse, and seven days later mortality is determined for both the adult mites and the nymphs hatching from eggs which were on the plants at the time of treatment. Test concentrations range from 0.05% down to that at which 50% mortality occurs. The values obtained in this test are found in Table VII under the Columns 2SM-PE and 2SM-Eggs.

[5] = system: Trichophyton mentagrophytes; experiment: In Vitro Agar Screening Tests (Example 4); type: cell-based; conditions: Emmons agar, 30° C, partial control at this concentration, read-out: Minimum Inhibitory Concentration
Protocol: (§1) This test measures the bactericidal, fungicidal and algaecidal properties of a compound when in contact with growing bacteria, fungi or algae in an artificial medium. The test is conducted by adding 20 ml. portions of a suitable warm sterile agar solution into 20 × 100 Petri dishes. Then, the text compound, in 0.5% acetone solution, is added to the Petri dishes at levels of 1, 5, 10 and 50 μg/ml. and mixed with the warm mobile agar solution. The treated agar mixture is then allowed to come to room temperature and solidify. Cells of the chosen organism are streaked on the surface of the solidified agar and are then incubated for such lengths of time that untreated samples containing no toxicant show luxurious growth typical of the particular organism. This time varies from 24 hours to one week depending on the particular organism. The fungi are incubated at 30° C and the bacteria are incubated at 37° C. The algae are incubated at room temperature under artificial light. Nutrient agar is used as the medium in this test for the bacteria. Potato dextrose agar is used as the medium for the fungi with the exception of Trichophyton mentagrophytes for which Emmons agar is used. A modified Jack Meyers agar is used for the growth of the algae.
(§2) The extent of growth is noted at the end of the incubation period.

[6] = system: Rhizopus stolonifer; experiment: In Vitro Agar Screening Tests (Example 4); type: cell-based; conditions: potato dextrose agar, 30° C, partial control at this concentration, read-out: Minimum Inhibitory Concentration
Protocol: as §1, §2

[7] = system: Pseudomonas aeruginosa; experiment: In Vitro Agar Screening Tests (Example 4); type: cell-based; conditions: nutrient agar, 37° C, read-out: Minimum Inhibitory Concentration
Protocol: as §1, §2

[8] = system: Pencillium expansum; experiment: In Vitro Agar Screening Tests (Example 4); type: cell-based; conditions: potato dextrose agar, 30° C, partial control at this concentration, read-out: Minimum Inhibitory Concentration
Protocol: as §1, §2

[9] = system: Aspergillus oryzae; experiment: In Vitro Agar Screening Tests (Example 4); type: cell-based; conditions: potato dextrose agar, 30° C, partial control at this concentration, read-out: Minimum Inhibitory Concentration
Protocol: as §1, §2

[10] = system: Pencillium ochra-chloron; experiment: In Vitro Agar Screening Tests (Example 4); type: cell-based; conditions: potato dextrose agar, 30° C, partial control at this concentration, read-out: Minimum Inhibitory Concentration
Protocol: as §1, §2

[11] = system: Euglena gracilis; experiment: In Vitro Agar Screening Tests (Example 4); type: cell-based; conditions: modified Jack Meyers agar, room temperature, artificial light, read-out: Minimum Inhibitory Concentration
Protocol: as §1, §2

[12] = system: Pseudomonas fluorescens; experiment: In Vitro Agar Screening Tests (Example 4); type: cell-based; conditions: nutrient agar, 37° C, read-out: Minimum Inhibitory Concentration
Protocol: as §1, §2

[13] = system: Aspergillus niger; experiment: In Vitro Agar Screening Tests (Example 4); type: cell-based; conditions: potato dextrose agar, 30° C, read-out: Minimum Inhibitory Concentration
Protocol: as §1, §2

[14] = system: Scenedesmus obliquus; experiment: In Vitro Agar Screening Tests (Example 4); type: cell-based; conditions: Tetradesmus obliquus, modified Jack Meyers agar, room temperature, artificial light, read-out: Minimum Inhibitory Concentration
Protocol: as §1, §2

[15] = system: Escherichia coli; experiment: In Vitro Agar Screening Tests (Example 4); type: cell-based; conditions: nutrient agar, 37° C, read-out: Minimum Inhibitory Concentration
Protocol: as §1, §2

[16] = system: Penicillium italicum; experiment: In Vitro Agar Screening Tests (Example 4); type: cell-based; conditions: potato dextrose agar, 30° C, read-out: Minimum Inhibitory Concentration
Protocol: as §1, §2

[17] = system: Staphylococcus aureus; experiment: In Vitro Agar Screening Tests (Example 4); type: cell-based; conditions: nutrient agar, 37° C, read-out: Minimum Inhibitory Concentration
Protocol: as §1, §2

[18] = system: Bacillus cereus; experiment: In Vitro Agar Screening Tests (Example 4); type: cell-based; conditions: nutrient agar, 37° C, read-out: Minimum Inhibitory Concentration
Protocol: as §1, §2

[19] = system: Brevibacterium ammoniagenes; experiment: In Vitro Agar Screening Tests (Example 4); type: cell-based; conditions: Corynebacterium ammoniagenes, nutrient agar, 37° C, read-out: Minimum Inhibitory Concentration
Protocol: as §1, §2

[20] = system: Pencillium vermiculatum; experiment: In Vitro Agar Screening Tests (Example 4); type: cell-based; conditions: potato dextrose agar, 30° C, read-out: Minimum Inhibitory Concentration
Protocol: as §1, §2

[21] = system: Chlorella pyrenoidosa; experiment: In Vitro Agar Screening Tests (Example 4); type: cell-based; conditions: Auxenochlorella pyrenoidosa, modified Jack Meyers agar, room temperature, artificial light, read-out: Minimum Inhibitory Concentration
Protocol: as §1, §2

[22] = system: Aspergillus fumigatus; experiment: In Vitro Agar Screening Tests (Example 4); type: cell-based; conditions: potato dextrose agar, 30° C, read-out: Minimum Inhibitory Concentration
Protocol: as §1, §2

[23] = system: Enterobacter aerogenes; experiment: In Vitro Agar Screening Tests (Example 4); type: cell-based; conditions: Klebsiella aerogenes, nutrient agar, 37° C, read-out: Minimum Inhibitory Concentration
Protocol: as §1, §2

[24] = system: Trichoderma sp.; experiment: In Vitro Agar Screening Tests (Example 4); type: cell-based; conditions: potato dextrose agar, 30° C, partial control at this concentration, read-out: Minimum Inhibitory Concentration
Protocol: as §1, §2

`CCOCCOC(=S)SCSC#N` [Compound 1] showed an IC50 [1] of 5 µg/mL (≈ 21.1 µM), an MIC [2] of 10 µg/mL (≈ 42.1 µM) and an MIC [3] of 50 µg/mL (≈ 211 µM). For the same compound, the “2-SM PE: concentration at which 50% mortality occurs” value [4] was “.03%”, the MIC [5] was 10 µg/mL (≈ 42.1 µM) and the MIC [6] was 1 µg/mL (≈ 4.21 µM). The MIC [7] was 50 µg/mL (≈ 211 µM), the MIC [8] was 5 µg/mL (≈ 21.1 µM) and the MIC [9] was 1 µg/mL (≈ 4.21 µM). It also gave an MIC [10] of 10 µg/mL (≈ 42.1 µM), an MIC [11] of 1 µg/mL (≈ 4.21 µM) and an MIC [12] of 50 µg/mL (≈ 211 µM). The MIC [13] was 1 µg/mL (≈ 4.21 µM), the MIC [14] was 10 µg/mL (≈ 42.1 µM) and the MIC [15] was 25 µg/mL (≈ 105 µM). For the same compound, the MIC [16] was 1 µg/mL (≈ 4.21 µM), the MIC [17] was 5 µg/mL (≈ 21.1 µM) and the MIC [18] was > 50 µg/mL. The MIC [19] was > 50 µg/mL, the MIC [20] was 10 µg/mL (≈ 42.1 µM) and the MIC [21] was 1 µg/mL (≈ 4.21 µM). The MIC [22] was 5 µg/mL (≈ 21.1 µM), the MIC [23] was > 50 µg/mL and the MIC [24] was 10 µg/mL (≈ 42.1 µM).
